Laboratory results published in patent publication US12156860B2, “Disorders implicating PUFA oxidation” (BioJiva LLC, priority 2011, dated 2024).

Experiments:
[1] = test system: stroke-prone spontaneously hypertensive (SHRSP) rat; experiment: SHRSP rat model of hypertension; format: in vivo; conditions: SHRSP rats, 8 weeks
Description: The stroke-prone spontaneously hypertensive (SHRSP) rat model of hypertension, which has been previously described (McIntyre et al., 1997 Hypertension 30:1517; Alexander et al., 1999 Cardiovasc. Res. 43:798; Fennell et al., 2002 Gene Ther. 9:110), can be used for the assessment of a compound's ability to mitigate hypertension.

[2] = Kinetics of O2 consumption during AMVN-initiated oxidation in chlorobenzene (glass capillary microvolumeter); format: physicochemical
Description: FIG. 7. Kinetics of O2 consumption accompanied the oxidation of 0.71 M LA (plots 1 and 2) and 0.71 M D2-LA (plot 3) in chlorobenzene initiated by 40 mM AMVN at 37° C. Plot 2-0.23 mM HPMC was added to 0.71 M LA.
The kinetics of oxygen consumption during the oxidation of LA and D2-LA was studied with a glass capillary microvolumeter (FIG. 7). The rate of oxidation, ROX, was measured as a slope of [O2] traces. The rate of initiation, RIN, was determined by the inhibitor method with HPMC (“6-hydroxy-2,2,5,7,8-pentamethylbenzochroman”) as a reference inhibitor. RIN was calculated from the induction period of inhibited oxidation, tIND: RIN=2·[HPMC]/tIND. […] When the process was inhibited by 0.23 mM chain-breaking antioxidant HPMC, the duration of the induction period, tIND, was about 48 min, with the RIN value of around 0.16×10^−6 M/s. […] The latter precludes a direct determination of RIN. […] An estimated kinetic isotope effect (“KIE”), from comparison of ROX for LA and D2-LA, was around 6.1×10^−6/0.18×10^−6≈35. A similar KIE was determined during the oxidation of LA and 11,11-d2-LA in Triton X-100 aqueous micelles (data not shown). For comparative purposes, the theoretical KIE is 6.9 at 25° C. See Carpenter, “Determination of Organic Reaction Mechanisms” (John Wiley & Sons, 1984), p. 89.

[2H]C([2H])(/C=C\CCCCC)/C=C\CCCCCCCC(=O)O [D2-LA, 11,11-Dideutero-cis,cis-9,12-Octadecadienoic acid]
systolic blood pressure [1]: reduction in systolic blood pressure
rate of oxidation, ROX ([2]; 0.71 M in chlorobenzene, 40 mM AMVN, 37° C.): 1.8e-07 M/s
kinetic isotope effect (KIE) from comparison of ROX for LA and D2-LA ([2]; chlorobenzene, 37° C.): ≈ 35
length of the kinetic chain, ROX/RIN ([2]; for D2-LA assuming RIN comparable to that of LA): ≈ 1.1
